Results on three compounds are retold here after patent US6919464B1, “Synthetic derivatives of 21-butenyl and related spinosyns” (Dow AgroSciences LLC, priority 2001, dated 2005).

SMILES strings stand for the structures.

Broadly, the mortality is the share of the test organisms that died. A higher mortality goes with a strong lethal effect.

Holding throughout (type): in vivo
Series [1] has as its system Heliothis virescens. Nature of the series: Tobacco Budworm (Heliothis virescens) feeding assay, cotton leaf-dip. As to conditions: rate 600 ppm, second instar larvae, 96 h.
The next series concerns Aphis gossypii. Nature of the series: Cotton Aphid (Aphis gossypii) assay, spray on squash seedlings. The note with it: rate 50 ppm, relative to plants sprayed with solvent only. Here is the method: Insecticidal activities of the compounds of the invention were also evaluated against cotton aphids (Aphis gossyppi) as follows. Summer crookneck squash seedlings at the expanded cotyledon stage are primed to a single cotyledon and infested with cotton aphids 16-24 hours before application of the test material by transfer of infested foliage cut from a stock colony. Immediately prior to spray application of the test material, the transfer foliage is removed from the squash plants. The test material is dissolved at 1 mg/ml in 90:10 acetone:alcohol, then diluted in water containing 0.05% Tween 20 (polyethylene (20) sorbitan monolaurate) to give test solution at a concentration of 50 ppm. The plants were sprayed with the test solution using an atomizing sprayer at 17 psi. Both surfaces of the cotyledons are covered until runnoff, and then allowed to dry. Activity of the compound was determined at three days after treatment. Activity was rated as a percent based on the number of aphids present in plants sprayed with solvent only.

In series [2] the test system is Heliothis virescens. Description: Tobacco Budworm (Heliothis virescens) feeding assay, cotton leaf-dip. As to conditions: rate 6.25 ppm, second instar larvae. The source says: To compare insecticidal activities of compounds of the invention against second instar larval Heliothis virescens leaf-dip bioassay was used. Cotton cotyledon leaves were dipped in a test solution made up of the compound dissolved in acetone: Millipore water (2:1) at rates of 400 ppm to 1.56 ppm. Each cotyledon was placed individually on top of a moistened (distilled water) cotton ball in the bottom of a 1 oz plastic cup and allowed to dry (one hour). After drying, a single laboratory-reared second instar Heliothis virescens larva (mean weight 15 mg.) was placed on the treated leaf and the cup sealed with a lid, and held at 27° C. for four days. Percent mortality was determined at the end of the holding period.

Series [3] relates to Heliothis virescens. Description: Tobacco Budworm (Heliothis virescens) topical assay. As to the method:
An additional measure of the relative insecticidal activities of the compounds of the invention was generated by using a 1 ug/ul acetone solution of each compound applied at 1 ug/larva of laboratory-reared Heliothis virescens larvae (mean weight of 22 mg). Each compound was applied along the dorsum of each of six larvae. Treated larvae were then held for two days at 21° C., 60% RH in six-well plastic culture plates. Larvae were each supplied with a 1 cm^3 of agar-based lepidoptera diet for sustenance during the two-day post-exposure interval. Percent mortality was determined at the end of a two-day period.

In turn, `CCCC[C@H]1CCC[C@H](OC2CC[C@H](N(C)C)[C@@H](C)O2)[C@@H](C)C(=O)C2=CC3C4C[C@H](O[C@@H]5O[C@@H](C)[C@H](OC)[C@@H](O)[C@H]5OC)CC4CCC3C2CC(=O)O1` (stereo partly shown) [Compound B12, 5,6,22,23-tetrahydro-for-(3′-O-desmethylrham)-I] returned a mortality at 600 ppm in the series with Heliothis virescens [1] of 100%.
In the series on Aphis gossypii (Aphis gossypii, 72 h), `CCCC[C@H]1CCC[C@H](OC2CC[C@H](N(C)C)[C@@H](C)O2)[C@@H](C)C(=O)C2=CC3C4C[C@H](O[C@@H]5O[C@@H](C)[C@H](OC)[C@@H](OC)[C@H]5OC)CC4CCC3C2CC(=O)O1` (stereo partly shown) [Compound B3, 5,6,22,23-tetrahydro-for-rham-I] registered a mortality at 50 ppm of 53%. In the series on Heliothis virescens [2] (Heliothis virescens, 96 h), this compound gave a mortality at 6.25 ppm of 100%. The “Tobacco Budworm Typical (48 h) Mortality (%)” value with Heliothis virescens [3] (in vivo) was determined as 100%.
As for `CCCCOC1C(OC)C(C)OC(OC2CC3CCC4C5CC(=O)OC(CCCC)CCCC(OC6CCC(N(C)C)C(C)O6)C(C)C(=O)C5=CC4C3C2)C1OC` (stereo not shown) [Compound A17], the “Cotton Aphid mortality (72 h) Mortality (%)” value in the series with Aphis gossypii is on record as 100%. Further, the “Tobacco Budworm Feeding (96 h) Mortality (%)” value with Heliothis virescens [2] was 10%. Besides, the “Tobacco Budworm Typical (48 h) Mortality (%)” value with Heliothis virescens [3] (rate 1 µg/larva, 48 h) came to 100%.
